In ChEMBL document CHEMBL5150003, “Why All the Fury over Furin?” (J Med Chem, 2022):
Numbered stars: 1 amine (or outer) side, 2 acyl side, 3 side chain; on linkers, the order of the positions; unused ones are H or OH. Bridge positions count the residues as written; N and C are the ends. Square brackets hold non-standard residues; d marks the D form. Peptide text beside a SMILES is read from it. * marks the point of attachment. NH(4-amidinobenzyl) = N=C(N)c1ccc(CN*)cc1; 2Nal = N[C@@H](Cc1ccc2ccccc2c1)C(=O)O; Glutaryl = O=C(CCCC(=O)[*:2])[*:1]; Suc = O=C(CCC(=O)[*:2])[*:1]; X3 = NC(N)=NC/C=C/CN*

Experiments:
[1] = target: T1, Furin (Homo sapiens, UniProt P09958); assay: Inhibition of Recombinant vaccinia-expressed furin (unknown origin) using Pyr-RTKR-MCA as substrate and measured by fluorescence based assay
T1 sequence (P09958 whole entry): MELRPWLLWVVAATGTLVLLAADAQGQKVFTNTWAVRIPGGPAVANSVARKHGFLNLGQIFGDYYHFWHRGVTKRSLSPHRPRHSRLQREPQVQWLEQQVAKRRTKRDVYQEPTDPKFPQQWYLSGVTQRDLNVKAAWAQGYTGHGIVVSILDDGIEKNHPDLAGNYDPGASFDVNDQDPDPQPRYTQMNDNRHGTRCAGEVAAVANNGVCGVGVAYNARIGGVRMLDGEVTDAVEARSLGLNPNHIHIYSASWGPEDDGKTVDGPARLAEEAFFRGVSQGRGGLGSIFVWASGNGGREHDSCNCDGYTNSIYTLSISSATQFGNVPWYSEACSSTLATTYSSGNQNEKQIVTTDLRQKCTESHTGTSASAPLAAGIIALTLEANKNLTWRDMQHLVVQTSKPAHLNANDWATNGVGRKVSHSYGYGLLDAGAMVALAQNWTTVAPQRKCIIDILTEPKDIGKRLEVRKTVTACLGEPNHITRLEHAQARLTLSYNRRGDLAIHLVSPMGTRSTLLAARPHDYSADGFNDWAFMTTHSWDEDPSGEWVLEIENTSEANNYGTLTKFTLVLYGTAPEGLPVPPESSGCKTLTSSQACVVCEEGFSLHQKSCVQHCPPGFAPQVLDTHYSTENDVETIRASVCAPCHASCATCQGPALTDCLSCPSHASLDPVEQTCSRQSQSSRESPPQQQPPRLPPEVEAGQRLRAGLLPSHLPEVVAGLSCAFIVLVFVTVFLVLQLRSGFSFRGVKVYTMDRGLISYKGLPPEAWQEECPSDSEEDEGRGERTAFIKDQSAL

[2] = Cytotoxicity against chinese hamster CHO-DG44 cells assessed as cell viability at 100 uM and measured after 2 hrs by WST-1 method; format: toxicity, cell-based, Cricetulus griseus; details: read-out: Activity
[3] = Cytotoxicity against human HT-1080 cells assessed as cell viability at 100 uM and measured after 2 hrs by WST-1 method; format: toxicity, cell-based; details: read-out: Activity
[4] = Inhibition of migration of human HT-1080 cells at 100 uM measured by calcein AM/ethidium homodimer (EthD-1) staining method; format: functional
[5] = tested on: RAW264.7; assay: Protective activity against Anthrax toxin-induced cytotoxicity in mouse RAW264.7 cells measured by WST-1 method; format: functional; details: dose 100 µM
[6] = target: T1, Furin; assay: Inhibition of furin (unknown origin)
[7] = Protective activity against Pseudomonas aeruginosa exotoxin A-induced cytotoxicity in chinese hamster CHO-DG44 cells measured by WST-1 method; format: functional, Cricetulus griseus; details: dose 100 µM
[8] = target: T1, Furin; assay: Inhibition of furin in human U2OS cells measured after 24 hrs by fluorescence assay; format: cell-based
[9] = tested on: Mus musculus; assay: Antifibrotic activity against bleomycin-induced mouse lung fibrosis model assessed as inhibition of TGF-beta secretion in lung at 10 mg/kg, po administered once daily; format: functional
[10] = tested on: Mus musculus; assay: Antifibrotic activity against bleomycin-induced mouse lung fibrosis model assessed as inhibition of hydroxyproline content in lung at 10 mg/kg, po administered once daily; format: functional
[11] = Stability in mouse plasma assessed as half-life; format: ADME, cell-free
[12] = target: T1, Furin; assay: Inhibition of furin (unknown origin) using Pyr-RTKR-MCA as substrate incubated for 30 mins and measured by FRET assay

N=C(N)Nc1ccc(Oc2cccc(Oc3ccc(NC(=N)N)cc3)c2)cc1
Ki [1]: 1500 nM | viability at 2 h, 100 µM [2]: > 20% | viability at 2 h, 100 µM [3]: > 20% | inhibition at 100 µM [4]: 90% | Activity [5]: 70%

CC(C)(C)[C@@H]1NC(=O)[C@H](CCCNC(N)N)NC(=O)[C@H](CCCNC(=N)N)NC(=O)[C@@H](N)CCCCNC(=O)CCN2CCN(CCC(=O)NCCCC[C@@H](C(=O)NCc3ccc(C(=N)N)cc3)NC1=O)CC2
Ki [6]: 0.491 nM

N=C(N)Nc1ccc(O[C@H]2C[C@@H](Oc3ccc(NC(=N)N)cn3)[C@H](NC(=N)N)C[C@@H]2NC(=N)N)nc1
viability at 2 h, 100 µM [2]: > 90% | viability at 2 h, 100 µM [3]: > 90% | Activity [7]: 100% | Activity [5]: 80%

N=C(N)Nc1ccc(O[C@H]2C[C@@H](Oc3ccc(NC(=N)N)c4ccccc34)[C@H](NC(=N)N)C[C@@H]2NC(=N)N)cc1
viability at 2 h, 100 µM [2]: > 50% | viability at 2 h, 100 µM [3]: > 50% | Activity [7]: 60% | Activity [5]: 90%

N=C(N)NCCC[C@@H]1NC(=O)[C@H](Cc2ccc3ccccc3c2)NC(=O)[C@H](Cc2ccccc2)NC(=O)CCC(=O)NCCCC[C@@H](C(=O)N[C@@H](CCCCN)C(=O)NCc2ccc(C(=N)N)cc2)NC(=O)[C@H](CCCNC(=N)N)NC(=O)[C@H](CCCNC(=N)N)NC1=O (F[2Nal]RRRKK-{NH(4-amidinobenzyl)}; linker N-6 via Suc)
Ki [6]: 0.618 nM

CN1CCN(c2ncc(Oc3cc(CN4CCC(CC(=O)O)CC4)cc(-c4cc(Cl)cc(Cl)c4)n3)cn2)CC1
pXC50 [8]: 7.8 | inhibition in vivo at 10 mg/kg [9]: 66% | inhibition in vivo at 10 mg/kg [10]: 46%

N=C(N)Nc1ccc(O[C@H]2C[C@@H](Oc3ccc(NC(=N)N)cc3NC(=N)N)[C@H](NC(=N)N)C[C@@H]2NC(=N)N)c(NC(=N)N)c1
viability at 2 h, 100 µM [2]: > 90% | viability at 2 h, 100 µM [3]: > 90% | inhibition at 100 µM [4]: 60% | Activity [7]: >70% | Activity [5]: >80%

C[C@@H](O)CN1CCN(c2ncc(Oc3cc(CN4CCC(CC(=O)O)CC4)cc(-c4cc(Cl)cc(Cl)c4)n3)cn2)CC1
pXC50 [8]: 7.7 | inhibition in vivo at 10 mg/kg [9]: 23% | inhibition in vivo at 10 mg/kg [10]: 16%

CC(=O)N[C@@H](CCCN=C(N)N)C(=O)N[C@@H](C)C(=O)N[C@@H](CCCN=C(N)N)C(=O)N[C@@H](CCCN=C(N)N)C(=O)N[C@@H](CCCN=C(N)N)C(=O)N[C@@H](CCCCN)C(=O)N[C@@H](CCCCN)C(=O)NC/C=C/CN=C(N)N (Ac-RARRRKK-X3)
Ki [6]: 7 nM | half-life [11]: 3.3 h

CC(C)[C@H](NC(=O)[C@H](CCCNC(=N)N)NC(=O)[C@@H](N)CCCNC(=N)N)C(=O)N[C@@H](CCCNC(=N)N)C(=O)NCc1ccc(C(=N)N)cc1 (H-RRVR-{NH(4-amidinobenzyl)})
Ki [6]: 0.11 nM

CC(C)(C)[C@H](NC(=O)[C@H](CCCNC(=N)N)NC(=O)Cc1ccc(CN)cc1)C(=O)N[C@@H](CCCNC(=N)N)C(=O)NCc1ccc(C(=N)N)cc1
Ki [6]: 0.0224 nM

N=C(N)N[C@H]1C[C@@H](NC(=N)N)[C@H](Oc2ccc(C(=N)N)cc2)C[C@@H]1Oc1ccc(C(=N)N)cc1
Ki [12]: 2 nM

CN1CCN(c2cnc(Oc3cc(CN4CCC(CC(=O)O)CC4)cc(-c4cc(Cl)cc(Cl)c4)n3)cn2)CC1
pXC50 [8]: 7.3 | inhibition in vivo at 10 mg/kg [9]: 22% | inhibition in vivo at 10 mg/kg [10]: 4%

N=C(N)N[C@H]1C[C@@H](NC(=N)N)[C@H](Oc2ccc(C(=N)N)c3ccccc23)C[C@@H]1Oc1ccc(C(=N)N)c2ccccc12
Ki [12]: 50 nM

O=C(O)CC1CCN(Cc2cc(Oc3cnc(N4CCN(CCO)CC4)nc3)nc(-c3cc(Cl)cc(Cl)c3)c2)CC1
pXC50 [8]: 7.6 | inhibition in vivo at 10 mg/kg [9]: 31% | inhibition in vivo at 10 mg/kg [10]: 11%

CC(=O)NCC1CCN(Cc2cc(Oc3cnc(N4CCN(CCC(C)C(=O)O)CC4)nc3)nc(-c3cc(Cl)cc(Cl)c3)c2)CC1 (stereo not drawn)
pXC50 [8]: 8.3 | inhibition in vivo at 10 mg/kg [9]: 75% | inhibition in vivo at 10 mg/kg [10]: 62%

N=C(N)Nc1ccc(O[C@H]2C[C@@H](Oc3ccc(NC(=N)N)cc3)[C@H](NC(=N)N)C[C@@H]2NC(=N)N)cc1
viability at 2 h, 100 µM [2]: > 90% | viability at 2 h, 100 µM [3]: > 90% | Activity [7]: >20% | Activity [5]: >90%

N=C(N)Nc1ccc(O[C@H]2C[C@@H](Oc3ccc(NC(=N)N)c4ccccc34)[C@H](NC(=N)N)C[C@@H]2NC(=N)N)c(NC(=N)N)c1
viability at 2 h, 100 µM [2]: > 80% | viability at 2 h, 100 µM [3]: > 80% | inhibition at 100 µM [4]: > 60% | Activity [5]: 50%

N=C(N)NCCC[C@@H]1NC(=O)CCCC(=O)NCCCC[C@@H](C(=O)N[C@@H](CCCCN)C(=O)NCc2ccc(C(=N)N)cc2)NC(=O)[C@H](CCCNC(=N)N)NC1=O (RRKK-{NH(4-amidinobenzyl)}; linker N-3 via Glutaryl)
Ki [6]: 1.05 nM

N=C(N)c1ccc(OC2CCCC(Oc3ccc(C(=N)N)cc3)C2)cc1 (stereo not drawn)
Ki [12]: 1000 nM

N=C(N)N[C@H]1C[C@@H](NC(=N)N)[C@H](Oc2ccc(C(=N)N)cc2Cl)C[C@@H]1Oc1ccc(C(=N)N)cc1Cl
Ki [12]: 5 nM

CS(=O)(=O)CCCN1CCN(c2ncc(Oc3cc(CN4CCC(CC(=O)O)CC4)cc(-c4cc(Cl)cc(Cl)c4)n3)cn2)CC1
pXC50 [8]: 7.6 | inhibition in vivo at 10 mg/kg [9]: 40% | inhibition in vivo at 10 mg/kg [10]: -1%

N=C(N)N[C@H]1C[C@@H](NC(=N)N)[C@H](Oc2ccc(C(=N)N)cc2C(=N)N)C[C@@H]1Oc1ccc(C(=N)N)cc1C(=N)N
Ki [12]: 100 nM

N=C(N)Nc1ccc(OCCCOc2ccc(NC(=N)N)cc2)cc1
Ki [1]: 8300 nM | viability at 2 h, 100 µM [2]: 60% | viability at 2 h, 100 µM [3]: 60% | inhibition at 100 µM [4]: < 40%

N=C(N)N[C@H]1C[C@@H](NC(=N)N)[C@H](Oc2ccc(C(=N)N)cn2)C[C@@H]1Oc1ccc(C(=N)N)cn1
Ki [12]: 20 nM

Cc1cc(O[C@H]2C[C@@H](Oc3ccc(C(=N)N)c(C)c3)[C@H](NC(=N)N)C[C@@H]2NC(=N)N)ccc1C(=N)N
Ki [12]: 10 nM

CC(C)(C)[C@H](NC(=O)[C@H](CCCNC(=N)N)NC(=O)Cc1ccc(CNC(=N)N)cc1)C(=O)N[C@@H](CCCN)C(=O)NCc1ccc(C(=N)N)cc1
Ki [6]: 0.0088 nM

N=C(N)c1ccc(/N=N/Nc2ccc(C(=N)N)cc2)cc1 [DIMINAZENE]
Ki [12]: 5420 nM

N=C(N)NCCC[C@H](NC(=O)[C@@H]1CCCCNC(=O)CCC(=O)N[C@@H](Cc2ccccc2)C(=O)N[C@@H](Cc2ccc3ccccc3c2)C(=O)N[C@@H](CCCNC(=N)N)C(=O)N[C@@H](CCCNC(=N)N)C(=O)N[C@@H](CCCNC(=N)N)C(=O)N[C@@H](CCCNC(=N)N)C(=O)N1)C(=O)NCc1ccc(C(=N)N)cc1 (F[2Nal]RRRRKR-{NH(4-amidinobenzyl)}; linker N-7 via Suc)
Ki [6]: 0.0538 nM

O=C(O)CC1CCN(Cc2cc(Oc3cnc(N4CCNCC4)nc3)nc(-c3cc(Cl)cc(Cl)c3)c2)CC1
pXC50 [8]: 7.6 | inhibition in vivo at 10 mg/kg [9]: -11% | inhibition in vivo at 10 mg/kg [10]: 6%

N=C(N)NCCC[C@@H]1NC(=O)CCCC(=O)NCCCC[C@@H](C(=O)N[C@@H](CCCNC(=N)N)C(=O)NCc2ccc(C(=N)N)cc2)NC(=O)[C@H](CCCNC(=N)N)NC(=O)[C@H](CCCNC(=N)N)NC1=O (RRRKR-{NH(4-amidinobenzyl)}; linker N-4 via Glutaryl)
Ki [6]: 0.68 nM

CC(C)(C)[C@@H]1NC(=O)[C@H](CCCNC(=N)N)NC(=O)[C@H](CCCNC(=N)N)NC(=O)[C@@H](N)CCCCNC(=O)Cc2ccc(cc2)CNC(=O)CCCC(=O)NCCCC[C@@H](C(=O)NCc2ccc(C(=N)N)cc2)NC1=O
Ki [6]: 1.17 nM

N=C(N)c1ccc(Oc2cccc(Oc3ccc(C(=N)N)cc3)c2)cc1
Ki [12]: 100 nM

N=C(N)Nc1ccc(O[C@H]2C[C@@H](Oc3ccc(NC(=N)N)c4ccccc34)[C@H](NC(=N)N)C[C@@H]2NC(=N)N)c2ccccc12
viability at 2 h, 100 µM [2]: > 90% | viability at 2 h, 100 µM [3]: > 90% | inhibition at 100 µM [4]: 40% | Activity [7]: 30% | Activity [5]: 80%

N=C(N)NCCC[C@@H]1NC(=O)CCCC(=O)NCCCC[C@@H](C(=O)N[C@@H](CCCNC(=N)N)C(=O)NCc2ccc(C(=N)N)cc2)NC(=O)[C@H](CCCNC(=N)N)NC1=O (RRKR-{NH(4-amidinobenzyl)}; linker N-3 via Glutaryl)
Ki [6]: 0.504 nM

CC(C)(C)[C@H](NC(=O)[C@H](CCCNC(=N)N)NC(=O)Cc1ccc(CNC(=N)N)cc1)C(=O)N[C@@H](CCCNC(=N)N)C(=O)NCc1ccccc1
IC50 [6]: 0.56 nM

N=C(N)Nc1ccc(OC2CCCC(Oc3ccc(NC(=N)N)cc3)C2)cc1 (stereo not drawn)
Ki [1]: 5500 nM | viability at 2 h, 100 µM [2]: 70% | viability at 2 h, 100 µM [3]: 70% | inhibition at 100 µM [4]: 40% | Activity [5]: 30%
